Experimental findings from article PMC11762413 (2025) are described below.

Assay [1] deals with VAN-specific aptamer (Apt), 4trunc, immobilised on gold (DNA, aptamer) CGAGGGTACCGCAATAGTACTTATTGTTCGCCTATTGTGGGTCGG
The assay is described as follows: SPR kinetics (koff/kon). The note with it: 100 mM Na+, 100 mM K+, 10 mM Mg2+; 10 mM TRIS pH 7.4; aptamer immobilised on gold chip; VAN 0.05–10 µM; 1:1 model. Background: In SPR one partner is held on a chip, and binding of the other changes the refractive index at the surface.

Assay [2] has as its system VAN-specific aptamer (Apt), 4trunc, in solution (DNA, aptamer) CGAGGGTACCGCAATAGTACTTATTGTTCGCCTATTGTGGGTCGG
The assay is described as follows: ITC. The note with it: 100 mM Na+, 100 mM K+, 10 mM Mg2+; 10 mM TRIS pH 7.4, 25 °C; 10 µM aptamer titrated with 150 µM VAN; independent sites.

Assay [3] concerns VAN-specific aptamer (Apt), 4trunc, immobilised on gold (DNA, aptamer) CGAGGGTACCGCAATAGTACTTATTGTTCGCCTATTGTGGGTCGG
Description: EIS aptasensor selectivity. The note with it: 100 mM Na+, 100 mM K+, 10 mM Mg2+, 10 mM TRIS pH 7.4, room temperature, 45 min, tested at 1 µM.

For `CN[C@H](CC(C)C)C(=O)N[C@H]1C(=O)N[C@@H](CC(N)=O)C(=O)N[C@H]2C(=O)N[C@H]3C(=O)N[C@H](C(=O)N[C@H](C(=O)O)c4cc(O)cc(O)c4-c4cc3ccc4O)[C@H](O)c3ccc(c(Cl)c3)Oc3cc2cc(c3O[C@@H]2O[C@H](CO)[C@@H](O)[C@H](O)[C@H]2O[C@H]2C[C@](C)(N)[C@H](O)[C@H](C)O2)Oc2ccc(cc2Cl)[C@H]1O`, the KD in assay [1] is 18.31 ± 1.15 µM; in assay [2] it was 13.35 ± 2.74 µM.

Consider `OC[C@H]1OC(O)[C@H](O)[C@@H](O)[C@@H]1O` (stereo partly shown), for which the binding entry in assay [3] (10.65% of VAN signal) is “no”.

`OC[C@H]1O[C@@H](O[C@H]2[C@H](O)[C@@H](O)C(O)O[C@@H]2CO)[C@H](O)[C@@H](O)[C@H]1O` (stereo partly shown): the binding result in assay [3] (9.78% of VAN signal) is on record as “no”.

One may read the KD as the equilibrium constant for the complex coming apart. The low end stands for a tighter complex, the high end for a looser complex.
